Measurements reported in patent US11400093B2, “Deuterated elagolix-like compositions and methods” (Lupin Inc., priority 2019, dated 2022).

What was measured:
Format in all cases: in vitro ADME
[1] = tested on: cDNA-expressed CYP1A2, CYP2A6, CYP2B6, CYP2C8, CYP2C9, CYP2C19, CYP2D6, CYP2E1, CYP3A4, and CYP3A5; assay: Metabolism by cDNA-expressed human CYP enzymes, all isoforms (parent remaining); conditions: for average percent of parent compound remaining for all isoforms and concentrations: 1.0 μM and 10 μM, 120 minutes incubation, all ten CYP isoforms
Description: (§1) A study was conducted to determine the effect of deuteration on the metabolism of elagolix by human cytochrome P450 (CYP) enzymes. The metabolism of 4-[[(1R)-2-[5-(2-fluoro-3-methoxyphenyl)-3-[[2-fluoro-6(trifluoromethyl)phenyl]methyl]-3,6-dihydro-4-methyl-2,6-dioxo-1(2H)-pyrimidinyl]-1-phenylethyl]amino] butanoic acid-d3 (elagolix-d3) sodium salt and 4-[[(1R)-2-[5-(2-fluoro-3-methoxyphenyl)-3-[[2-fluoro-6(trifluoromethyl)phenyl] methyl]-3,6-dihydro-4-methyl-2,6-dioxo-1(2H)-pyrimidinyl]-1-phenylethyl]amino] butanoic acid-d6 (elagolix-d6) sodium salt by cDNA-expressed CYP enzymes were investigated in vitro and compared to results obtained with undeuterated elagolix to determine which human cytochrome P450 (CYP) enzymes are involved in the metabolism of elagolix, elagolix-d3, and elagolix-d6.
Commercially available cDNA-expressed human CYP enzymes were used for this study.
A 600 μL reaction mixture containing enzyme protein, NADPH generating system (1.3 mM NADP+, 3.3 mM glucose-6-phosphate, 0.4 U/mL glucose-6-phosphate dehydrogenase, 3.3 mM magnesium chloride) and each test article (elagolix, elagolix-d3, elagolix-d6) at two concentrations (e.g. 1 μM and 10 μM) in 100 mM potassium phosphate (pH 7.4) was incubated at 37° C. At two time points (0 and 120 min), the reaction was stopped by removing an aliquot and combining it with an equal volume of cold acetonitrile containing an internal standard (deuterated elagolix was used as the internal standard for elagolix, and elagolix was used as the internal standard for elagolix-d3 and -d6) and placed on ice. Samples were centrifuged to pellet the protein and the supernatant was frozen at −20° C. for subsequent analysis by LC-MS/MS.
Protein concentrations were constant for all isoforms within each experiment and standardized by the addition of control microsomes. Incubations were performed in duplicate. Incubations with vector control enzyme preparations and without enzyme source were included as negative controls.
All other positive controls were assayed at one concentration in duplicate in accordance with the methods described above. The percent of parent remaining at the end of the incubation was compared to 0 min based on the peak area ratio of the substrate and internal standard.
LC-MS/MS methods for elagolix, elagolix-d3, and elagolix-d6 were developed. The fraction of parent compound remaining compared to 0 min was determined based on peak area ratio (analyte/internal standard).
Elagolix, elagolix-d3, and elagolix-d6 at 1.0 μM and 10 μM were each incubated in the presence of cDNA-expressed CYP1A2, CYP2A6, CYP2B6, CYP2C8, CYP2C9, CYP2C19, CYP2D6, CYP2E1, CYP3A4, and CYP3A5 for 120 minutes. The average percent of parent compound remaining for all isoforms and concentrations was >11% for elagolix, >60% for elagolix-d3, and >26% for elagolix-d6.

cDNA-expressed CYP2D6 = target: T1, cDNA-expressed CYP2D6 (Homo sapiens, UniProt P10635); assay: Metabolism by cDNA-expressed CYP2D6 (parent remaining); conditions: 1 μM, 120 min
T1 construct: purchased
Description: as §1
(§2) Commercially available cDNA-expressed human CYP enzymes were used for this study. […]
(§3) LC-MS/MS methods for elagolix, elagolix-d3, and elagolix-d6 were developed. The fraction of parent compound remaining compared to 0 min was determined based on peak area ratio (analyte/internal standard). […]

cDNA-expressed CYP3A5 = target: T2, cDNA-expressed CYP3A5 (Homo sapiens, UniProt P20815); assay: Metabolism by cDNA-expressed CYP3A5 (parent remaining); conditions: 1 μM, 120 min
T2 construct: purchased
Description: as §1, §2, §3

T1 sequence (P10635 whole entry): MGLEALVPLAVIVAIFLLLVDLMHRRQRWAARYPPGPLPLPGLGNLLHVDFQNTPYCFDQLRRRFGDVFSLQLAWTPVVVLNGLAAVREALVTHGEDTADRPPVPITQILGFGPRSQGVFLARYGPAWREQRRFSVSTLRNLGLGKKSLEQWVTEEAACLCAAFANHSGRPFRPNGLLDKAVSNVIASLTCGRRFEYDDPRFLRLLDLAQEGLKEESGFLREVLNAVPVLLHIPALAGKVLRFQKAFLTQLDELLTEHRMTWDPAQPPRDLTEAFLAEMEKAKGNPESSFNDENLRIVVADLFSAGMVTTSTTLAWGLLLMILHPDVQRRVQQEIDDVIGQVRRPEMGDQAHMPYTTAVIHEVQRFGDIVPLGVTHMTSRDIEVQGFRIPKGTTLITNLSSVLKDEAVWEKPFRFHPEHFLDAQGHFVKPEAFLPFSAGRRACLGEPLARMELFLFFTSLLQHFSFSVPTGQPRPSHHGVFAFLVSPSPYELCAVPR
T2 sequence (P20815 whole entry): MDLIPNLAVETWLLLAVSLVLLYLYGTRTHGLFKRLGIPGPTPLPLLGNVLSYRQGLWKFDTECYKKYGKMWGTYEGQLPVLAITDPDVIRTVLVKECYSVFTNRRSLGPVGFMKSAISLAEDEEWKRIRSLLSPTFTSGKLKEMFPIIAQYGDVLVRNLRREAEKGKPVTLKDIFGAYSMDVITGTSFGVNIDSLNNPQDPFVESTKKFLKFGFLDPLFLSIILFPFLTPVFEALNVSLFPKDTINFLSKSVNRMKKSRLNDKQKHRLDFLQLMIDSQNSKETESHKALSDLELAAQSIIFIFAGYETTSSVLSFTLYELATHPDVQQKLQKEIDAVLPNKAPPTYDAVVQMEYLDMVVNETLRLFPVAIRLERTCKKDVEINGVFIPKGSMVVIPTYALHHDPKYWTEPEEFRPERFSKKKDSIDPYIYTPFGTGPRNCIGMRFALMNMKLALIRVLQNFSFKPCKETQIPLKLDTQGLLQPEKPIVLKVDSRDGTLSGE

| SMILES | average percent of parent compound remaining for all isoforms and concentrations [1] | percent parent remaining, cDNA-expressed CYP2D6 (cDNA-expressed CYP2D6) | percent parent remaining, cDNA-expressed CYP3A5 (cDNA-expressed CYP3A5) | average amount of parent compound in a CYP enzyme assay after 120 minutes relative to that of elagolix [1] | depletion by cDNA-expressed CYP2D6 (cDNA-expressed CYP2D6) |
| --- | --- | --- | --- | --- | --- |
| COc1cccc(-c2c(C)n(Cc3c(F)cccc3C(F)(F)F)c(=O)n(C[C@H](NCCCC(=O)O)c3ccccc3)c2=O)c1F [elagolix, 4-({(1R)-2-[5-(2-fluoro-3methoxyphenyl)-3-{[2-fluoro-6-(trifluoromethyl)phenyl]methyl}-4-methyl-2,6-dioxo-3,6dihydropyrimidin-1(2H)-yl]-1-phenylethyl}amino)butanoate] | > 11% | 62% | 11% |  |  |
| [2H]C([2H])([2H])Oc1cccc(-c2c(C)n(Cc3c(F)cccc3C(F)(F)F)c(=O)n(C[C@H](NCCCC(=O)O)c3ccccc3)c2=O)c1F [elagolix-d3, 4-[[(1R)-2-[5-(2-fluoro-3-methoxyphenyl)-3-[[2-fluoro-6(trifluoromethyl)phenyl]methyl]-3,6-dihydro-4-methyl-2,6-dioxo-1(2H)-pyrimidinyl]-1-phenylethyl]amino] butanoic acid-d3] | > 60% |  | 60% | more than 400% | did not demonstrate any depletion |
| [2H]C([2H])(N[C@@H](Cn1c(=O)c(-c2cccc(OC)c2F)c(C)n(Cc2c(F)cccc2C(F)(F)F)c1=O)c1ccccc1)C([2H])([2H])C([2H])([2H])C(=O)O [elagolix-d6, 4-[[(1R)-2-[5-(2-fluoro-3-methoxyphenyl)-3-[[2-fluoro-6(trifluoromethyl)phenyl]methyl]-3,6-dihydro-4-methyl-2,6-dioxo-1(2H)-pyrimidinyl]-1-phenylethyl]amino] butanoic acid-d6] | > 26% |  |  | 136% |  |
